Test results published in PubChem BioAssay AID248 (DTP/NCI, 2004).
Several values for one entry are separate records, joined by “and”; a condition that tells them apart may be missing. Identical values can stand only once. Inconclusive results and toxic doses are left out. Cut-off read from the data, not from the text of the source: active = T/C of 150% or more; inactive = T/C below 125%.

Tested on: L1210 leukemia ip in BDF1 mice, survival T/C
Test: NCI In Vivo Anticancer Drug Screen. Data for tumor model L1210 Leukemia (intraperitoneal) in B6D2F1 (BDF1) mice
Settings: endpoint: mean survival time, higher = longer survival
Method in brief: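 Value reflects the ratio of survival in compound-treated mice to survival in vehicle-treated controls, with both groups carrying the same transplanted tumor.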

[1] = dose: 100.0 mg/kg/injection, schedule: Q01DX001 (ip), vehicle: saline
[2] = dose: 100.0 mg/kg/injection, schedule: Q01DX009 (ip), vehicle: Klucel (hydroxypropylcellulose) (HPC)
[3] = dose: 100.0 mg/kg/injection, schedule: Q04DX003 (ip), vehicle: Klucel (hydroxypropylcellulose) (HPC)
[4] = dose: 100.0 mg/kg/injection, schedule: Q04DX003 (ip), vehicle: saline
[5] = dose: 200.0 mg/kg/injection, schedule: Q01DX001 (ip), vehicle: saline
[6] = dose: 200.0 mg/kg/injection, schedule: Q01DX009 (ip), vehicle: Klucel (hydroxypropylcellulose) (HPC)
[7] = dose: 200.0 mg/kg/injection, schedule: Q04DX003 (ip), vehicle: Klucel (hydroxypropylcellulose) (HPC)
[8] = dose: 200.0 mg/kg/injection, schedule: Q04DX003 (ip), vehicle: saline
[9] = dose: 400.0 mg/kg/injection, schedule: Q01DX001 (ip), vehicle: saline
[10] = dose: 400.0 mg/kg/injection, schedule: Q01DX009 (ip), vehicle: Klucel (hydroxypropylcellulose) (HPC)
[11] = dose: 400.0 mg/kg/injection, schedule: Q04DX003 (ip), vehicle: Klucel (hydroxypropylcellulose) (HPC)
[12] = dose: 400.0 mg/kg/injection, schedule: Q04DX003 (ip), vehicle: saline
[13] = dose: 50.0 mg/kg/injection, schedule: Q01DX009 (ip), vehicle: saline with Tween-80
[14] = dose: 100.0 mg/kg/injection, schedule: Q01DX009 (ip), vehicle: saline with Tween-80
[15] = dose: 200.0 mg/kg/injection, schedule: Q01DX009 (ip), vehicle: saline with Tween-80

Measured: T/C

COc1cc(C2=C3C(=O)OC[C@@H]3Cc3cc4c(cc32)OCO4)cc(OC)c1OC
inactive: [1] 94 % of control | [2] 91 % of control | [3] 95 % of control | [4] 105 % of control | [5] 104 % of control | [6] 94 % of control | [7] 97 % of control | [8] 96 % of control | [9] 93 % of control | [10] 96 % of control | [11] 92 % of control | [12] 101 % of control

CCOC(=O)/C=C(\C)OCC
inactive: dose: 25.0 mg/kg/injection, schedule: Q01DX009 (ip), vehicle: saline 106 % of control | dose: 50.0 mg/kg/injection, schedule: Q01DX009 (ip), vehicle: saline 109 % of control | dose: 100.0 mg/kg/injection, schedule: Q01DX009 (ip), vehicle: saline 109 % of control | dose: 200.0 mg/kg/injection, schedule: Q01DX009 (ip), vehicle: saline 111 % of control | dose: 400.0 mg/kg/injection, schedule: Q01DX009 (ip), vehicle: saline 104 % of control

O=NN1CCC1
inactive: [1] 97 % of control | [5] 93 % of control | [9] 93 % of control

COc1cc(/C=N/OCc2cc3c(cc2Cl)OCO3)cc(OC)c1OC
inactive: dose: 100.0 mg/kg/injection, schedule: Q04DX003 (ip), vehicle: saline with Tween-80 99 % of control | dose: 200.0 mg/kg/injection, schedule: Q04DX003 (ip), vehicle: saline with Tween-80 94 % of control | dose: 400.0 mg/kg/injection, schedule: Q04DX003 (ip), vehicle: saline with Tween-80 96 % of control

CC(C)CC(CC(C)C)NCC(C)OC(=O)c1ccc([N+](=O)[O-])cc1 (stereo not given)
inactive: dose: 100.0 mg/kg/injection, schedule: Q01DX009 (ip), vehicle: water 93 % of control | dose: 100.0 mg/kg/injection, schedule: Q04DX003 (ip), vehicle: water 98 % of control | dose: 200.0 mg/kg/injection, schedule: Q01DX009 (ip), vehicle: water 88 % of control | dose: 200.0 mg/kg/injection, schedule: Q04DX003 (ip), vehicle: water 98 % of control | dose: 400.0 mg/kg/injection, schedule: Q01DX009 (ip), vehicle: water 86 % of control | dose: 400.0 mg/kg/injection, schedule: Q04DX003 (ip), vehicle: water 96 % of control

O=C(OCCO)c1ccccc1O
inactive: dose: 75.0 mg/kg/injection, schedule: Q01DX009 (ip), vehicle: saline sonified 102 % of control | [4] 102 % of control | dose: 150.0 mg/kg/injection, schedule: Q01DX009 (ip), vehicle: saline sonified 116 % of control | [8] 98 % of control | dose: 300.0 mg/kg/injection, schedule: Q01DX009 (ip), vehicle: saline sonified 108 % of control | [12] 102 % of control

CC(C)(C)C1=CC(=O)C(C(C)(C)C)=CC1=O
inactive: [13] 104 % of control | [14] 98 % of control | [15] 95 % of control

C[C@H](CCC[C@H](C)OS(=O)(=O)c1ccccc1)OS(=O)(=O)c1ccccc1
inactive: dose: 25.0 mg/kg/injection, schedule: Q01DX009 (ip), vehicle: saline with Tween-80 104 % of control and 112 % of control | [13] 107 % of control and 112 % of control (2×) | [14] 109 % of control | [15] 112 % of control (2×) and 117 % of control

O=C(/C(=C\c1ccccc1)CBr)c1ccc(Br)cc1
inactive: dose: 3.12 mg/kg/injection, schedule: Q01DX009 (ip), vehicle: saline 100 % of control | dose: 6.25 mg/kg/injection, schedule: Q01DX009 (ip), vehicle: saline 100 % of control | dose: 12.5 mg/kg/injection, schedule: Q01DX009 (ip), vehicle: saline 94 % of control and 89 % of control | dose: 12.5 mg/kg/injection, schedule: Q04DX003 (ip), vehicle: saline with Tween-80 96 % of control | dose: 25.0 mg/kg/injection, schedule: Q04DX003 (ip), vehicle: saline with Tween-80 93 % of control | dose: 50.0 mg/kg/injection, schedule: Q04DX003 (ip), vehicle: saline with Tween-80 94 % of control

COC(=O)c1cc(=O)c2c(=O)[nH]c(=O)n(C)c2[nH]1
inactive: [3] 94 % of control | [7] 101 % of control | [11] 95 % of control

COC1OC(COC(=O)c2ccccc2)C(OC(=O)c2ccccc2)C(OC(=O)c2ccccc2)C1OS(=O)(=O)c1ccc(C)cc1 (stereo not given)
inactive: dose: 100.0 mg/kg/injection, schedule: Q04DX002 (ip), vehicle: Klucel (hydroxypropylcellulose) (HPC) 103 % of control | dose: 200.0 mg/kg/injection, schedule: Q04DX002 (ip), vehicle: Klucel (hydroxypropylcellulose) (HPC) 88 % of control | dose: 400.0 mg/kg/injection, schedule: Q04DX002 (ip), vehicle: Klucel (hydroxypropylcellulose) (HPC) 88 % of control

CNC(=O)Nc1ccc(OC)cc1OC
inactive: [2] 105 % of control | [3] 106 % of control | [6] 94 % of control | [7] 111 % of control | [10] 98 % of control | [11] 103 % of control

CC(=O)N(C)c1ccc(/C=C2\C=Cc3ccccc32)cc1
inactive: dose: 50.0 mg/kg/injection, schedule: Q01DX001 (ip), vehicle: carboxymethylcellulose (CMC) 96 % of control | dose: 100.0 mg/kg/injection, schedule: Q01DX001 (ip), vehicle: carboxymethylcellulose (CMC) 98 % of control | dose: 200.0 mg/kg/injection, schedule: Q01DX001 (ip), vehicle: carboxymethylcellulose (CMC) 96 % of control | dose: 400.0 mg/kg/injection, schedule: Q01DX001 (ip), vehicle: carboxymethylcellulose (CMC) 96 % of control

COc1ccccc1N(N=O)C(=O)CC(C)=O
inactive: [1] 101 % of control | [5] 101 % of control | [9] 101 % of control

CCN1/C(=C/c2ccc3ccccc3[n+]2CC)C=Cc2ccccc21
inactive: dose: 2.0 mg/kg/injection, schedule: Q01DX001 (ip), vehicle: other 103 % of control | dose: 8.0 mg/kg/injection, schedule: Q01DX001 (ip), vehicle: other 110 % of control | dose: 9.5 mg/kg/injection, schedule: Q01DX001 (ip), vehicle: other 101 % of control

Nc1c(Cl)c(Cl)c(Cl)c(Cl)c1C(=O)O
inactive: dose: 40.0 mg/kg/injection, schedule: Q01DX009 (ip), vehicle: Klucel (hydroxypropylcellulose) (HPC) 105 % of control | dose: 75.0 mg/kg/injection, schedule: Q01DX009 (ip), vehicle: Klucel (hydroxypropylcellulose) (HPC) 103 % of control | dose: 75.0 mg/kg/injection, schedule: Q04DX003 (ip), vehicle: saline 104 % of control | [2] 93 % of control | dose: 150.0 mg/kg/injection, schedule: Q01DX009 (ip), vehicle: Klucel (hydroxypropylcellulose) (HPC) 97 % of control and 122 % of control | dose: 150.0 mg/kg/injection, schedule: Q04DX003 (ip), vehicle: saline 98 % of control | [6] 93 % of control

COC(=O)c1cccc(Nc2ccccc2C(=O)O)c1
inactive: dose: 100.0 mg/kg/injection, schedule: Q01DX001 (ip), vehicle: Klucel (hydroxypropylcellulose) (HPC) 102 % of control | dose: 200.0 mg/kg/injection, schedule: Q01DX001 (ip), vehicle: Klucel (hydroxypropylcellulose) (HPC) 96 % of control | dose: 400.0 mg/kg/injection, schedule: Q01DX001 (ip), vehicle: Klucel (hydroxypropylcellulose) (HPC) 93 % of control
